Laboratory results from patent US11040036B2, “Pyruvate kinase activators for use in treating blood disorders” (Agios Pharmaceuticals, Inc., priority 2017, dated 2021).

Experiments:
[1] = biological target: T1, wild type PKR (Homo sapiens, UniProt P30613); experiment: PKR mutant assay (AC50), wild type PKR; format: biochemical; conditions: wild type PKR enzyme; read-out: PKR WT AC50
Procedure, shortened: (§1)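 Compounds were tested from 100 μM final, 3-fold over 11 points, and held 60 min at room temperature with enzyme (40-400 ng/well wild-type, R510Q or K410E PKR). ADP 0.2-1.65 mM then started the reaction, with PEP 0.1-0.5 mM in pH 7.5 Tris/KCl/MgCl2 buffer. LDH/NADH (180 μM) coupled read-out was taken as A340 change, fitted to AC50.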

[2] = biological target: PKR K410E (Homo sapiens, UniProt P30613, K410E); experiment: PKR mutant assay (AC50), PKR K410E; format: biochemical; conditions: PKR K410E mutant enzyme
Procedure, shortened: as §1

[3] = biological target: PKR R510Q (Homo sapiens, UniProt P30613, R510Q); experiment: PKR mutant assay (AC50), PKR R510Q; format: biochemical; conditions: PKR R510Q mutant enzyme; read-out: PK R510Q AC50
Procedure, shortened: as §1

[4] = biological target: T1, wild type PKR; experiment: Cell based ATP assay in purified red blood cells; parameters: endogenous in cells; host or cells: purified red blood cells from blood of healthy volunteers; conditions: RBCs, overnight at 37° C., ATP levels by Cell-Titer-Glo
Procedure, shortened: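 ATP content was measured by CellTiter-Glo after overnight exposure to compound at 37 °C. Cells were purified red blood cells from healthy donors, filtered to remove leukocytes and suspended at 1×10^7 cells/mL in AGAM medium. Compounds were serially diluted 1:4, with 0.1% DMSO final.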

Sequence of PKR K410E (P30613 whole entry K410E): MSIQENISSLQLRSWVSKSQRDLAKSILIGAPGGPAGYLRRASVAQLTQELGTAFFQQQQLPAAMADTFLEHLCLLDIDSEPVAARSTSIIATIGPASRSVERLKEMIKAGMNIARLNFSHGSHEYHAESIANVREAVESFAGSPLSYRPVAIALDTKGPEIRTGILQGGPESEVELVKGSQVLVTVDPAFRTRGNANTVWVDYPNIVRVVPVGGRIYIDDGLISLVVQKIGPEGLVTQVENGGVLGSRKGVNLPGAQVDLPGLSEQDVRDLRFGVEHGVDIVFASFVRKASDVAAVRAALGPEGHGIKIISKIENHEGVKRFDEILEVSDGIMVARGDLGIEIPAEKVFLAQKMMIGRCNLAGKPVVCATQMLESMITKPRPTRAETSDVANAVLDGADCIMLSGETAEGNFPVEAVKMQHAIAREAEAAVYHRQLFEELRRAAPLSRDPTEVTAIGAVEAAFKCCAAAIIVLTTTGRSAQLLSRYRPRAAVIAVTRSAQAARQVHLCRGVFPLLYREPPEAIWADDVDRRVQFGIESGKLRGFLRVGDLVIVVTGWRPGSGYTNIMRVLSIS
Sequence of PKR R510Q (P30613 whole entry R510Q): as the sequence (P30613 whole entry K410E) above, with E410K, R510Q counted along it
T1 sequence (P30613 whole entry): as the sequence (P30613 whole entry K410E) above, with E410K counted along it

| Structure (SMILES) | AC50 [1] | AC50 [2] | AC50 [3] | AC50 [4] | Cell based ATP assay AC50 [4] |
| --- | --- | --- | --- | --- | --- |
| Cn1c2nc(Cc3ccn[nH]3)sc2c2cnn(Cc3cn[nH]c3)c(=O)c21 | < 300 nM | < 300 nM | < 300 nM | ≤ 1000 nM | – |
| Cn1c2nc(Cc3cscn3)sc2c2cnn(Cc3nccs3)c(=O)c21 | < 300 nM | < 300 nM | < 300 nM | ≤ 1000 nM | – |
| Cn1c2nc(Cc3ccccn3)sc2c2cnn(Cc3nccs3)c(=O)c21 | < 300 nM | < 300 nM | < 300 nM | ≤ 1000 nM | – |
| Cn1c2nc(Cc3cc[nH]n3)sc2c2cnn(Cc3n[nH]cc3OC(F)(F)F)c(=O)c21 | 301 to 800 nM | 301 to 800 nM | 301 to 800 nM | > 1000 nM | – |
| Cn1c2nc(Cc3n[nH]cc3F)sc2c2cnn(Cc3n[nH]cc3Cl)c(=O)c21 | < 300 nM | < 300 nM | < 300 nM | ≤ 1000 nM | – |
| Cn1c2nc(Cc3n[nH]cc3F)sc2c2cnn(Cc3n[nH]cc3C(N)=O)c(=O)c21 | < 300 nM | < 300 nM | < 300 nM | ≤ 1000 nM | – |
| COc1ncccc1Cn1ncc2c3sc(Cc4n[nH]cc4F)nc3n(C)c2c1=O | < 300 nM | < 300 nM | < 300 nM | ≤ 1000 nM | – |
| Cn1c2nc(Cc3n[nH]cc3F)sc2c2cnn(Cc3ccc[nH]c3=O)c(=O)c21 | < 300 nM | < 300 nM | < 300 nM | ≤ 1000 nM | – |
| Cn1c2nc(Cc3n[nH]cc3F)sc2c2cnn(Cc3n[nH]cc3C#N)c(=O)c21 | < 300 nM | < 300 nM | < 300 nM | ≤ 1000 nM | – |
| CC(=O)Nc1ccc(F)c(Cn2ncc3c4sc(Cc5cnn(C)c5)nc4n(C)c3c2=O)n1 | > 800 nM | > 800 nM | > 800 nM | > 1000 nM | – |
| Cn1ccc(Cn2ncc3c4sc(C(=O)c5cc[nH]n5)nc4n(C)c3c2=O)n1 | > 800 nM | > 800 nM | > 800 nM | ≤ 1000 nM | – |
| Cn1c2nc(C(=O)c3cc[nH]n3)sc2c2cnn(Cc3cccc(N)n3)c(=O)c21 | 301 to 800 nM | < 300 nM | < 300 nM | ≤ 1000 nM | – |
| CC(=O)Nc1ccc(F)c(Cn2ncc3c4sc(Cn5ccnc5)nc4n(C)c3c2=O)c1 | > 800 nM | > 800 nM | > 800 nM | > 1000 nM | – |
| Cn1c2nc(Cc3ccccn3)sc2c2cnn(Cc3cccnc3)c(=O)c21 | 301 to 800 nM | 301 to 800 nM | < 300 nM | ≤ 1000 nM | – |
| Cn1c2nc(Cn3cncn3)sc2c2cnn(Cc3ccnc(N)n3)c(=O)c21 | > 800 nM | > 800 nM | > 800 nM | – | No Fit |
| Cn1c2nc(Cn3ccnc3)sc2c2cnn(Cc3ccnc(N)n3)c(=O)c21 | > 800 nM | > 800 nM | > 800 nM | – | No Fit |
| CC(c1cc[nH]n1)c1nc2c(s1)c1cnn(Cc3cc[nH]n3)c(=O)c1n2C (stereo not drawn) | < 300 nM | < 300 nM | < 300 nM | ≤ 1000 nM | – |
| Cn1c2nc(C(=O)c3cc[nH]n3)sc2c2cnn(Cc3cc[nH]n3)c(=O)c21 | 301 to 800 nM | > 800 nM | 301 to 800 nM | ≤ 1000 nM | – |

Now from value to molecule:

| AC50 [1] | AC50 [2] | AC50 [3] | AC50 [4] | Cell based ATP assay AC50 [4] | Structure (SMILES) |
| --- | --- | --- | --- | --- | --- |
| < 300 nM | < 300 nM | < 300 nM | ≤ 1000 nM | – | Cn1c2nc(Cc3cc[nH]n3)sc2c2cnn(Cc3ncsc3C(N)=O)c(=O)c21 |
| < 300 nM | < 300 nM | < 300 nM | ≤ 1000 nM | – | Cn1c2nc(Cc3cc[nH]n3)sc2c2cnn(Cc3cnc(N)s3)c(=O)c21 |
| < 300 nM | < 300 nM | < 300 nM | ≤ 1000 nM | – | Cn1c2nc(Cc3cc[nH]n3)sc2c2cnn(Cc3c[nH]cn3)c(=O)c21 |
| < 300 nM | < 300 nM | < 300 nM | ≤ 1000 nM | – | Cn1c2nc(Cc3cc[nH]n3)sc2c2cnn(Cc3c[nH]nn3)c(=O)c21 |
| < 300 nM | < 300 nM | < 300 nM | ≤ 1000 nM | – | Cn1c2nc(Cc3cc[nH]n3)sc2c2cnn(Cc3ccns3)c(=O)c21 |
| < 300 nM | < 300 nM | < 300 nM | ≤ 1000 nM | – | Cn1c2nc(Cc3cc[nH]n3)sc2c2cnn(Cc3nc[nH]n3)c(=O)c21 |
| < 300 nM | < 300 nM | < 300 nM | ≤ 1000 nM | – | Cc1scnc1Cn1ncc2c3sc(Cc4cc[nH]n4)nc3n(C)c2c1=O |
| < 300 nM | < 300 nM | < 300 nM | ≤ 1000 nM | – | Cn1c2nc(Cc3cc[nH]n3)sc2c2cnn(Cc3ncc[nH]3)c(=O)c21 |
| < 300 nM | < 300 nM | < 300 nM | ≤ 1000 nM | – | Cn1c2nc(Cc3csc(CO)n3)sc2c2cnn(Cc3cc[nH]n3)c(=O)c21 |
| < 300 nM | < 300 nM | < 300 nM | ≤ 1000 nM | – | Cn1c2nc(Cc3cc[nH]n3)sc2c2cnn(Cc3coc(N)n3)c(=O)c21 |
| > 800 nM | > 800 nM | < 300 nM | > 1000 nM | – | Cn1cc(CN)c(Cn2ncc3c4sc(Cc5cc[nH]n5)nc4n(C)c3c2=O)n1 |
| > 800 nM | > 800 nM | > 800 nM | > 1000 nM | – | Cn1cc(CC(N)=O)c(Cn2ncc3c4sc(Cc5cc[nH]n5)nc4n(C)c3c2=O)n1 |
| 301 to 800 nM | 301 to 800 nM | > 800 nM | > 1000 nM | – | Cn1c2nc(Cc3cc[nH]n3)sc2c2cnn(Cc3nc[nH]c3C(N)=O)c(=O)c21 |
| < 300 nM | < 300 nM | < 300 nM | ≤ 1000 nM | – | Cn1c2nc(Cc3cc[nH]n3)sc2c2cnn(Cc3csc(F)n3)c(=O)c21 |
| < 300 nM | < 300 nM | < 300 nM | ≤ 1000 nM | – | Cn1c2nc(Cc3cc[nH]n3)sc2c2cnn(Cc3ccnn3N)c(=O)c21 |
| > 800 nM | > 800 nM | > 800 nM | > 1000 nM | – | Cn1c2nc(Cc3cc[nH]n3)sc2c2cnn(Cc3n[nH]c(=O)[nH]3)c(=O)c21 |
| > 800 nM | > 800 nM | > 800 nM | ≤ 1000 nM | – | Cn1c2nc(Cc3cc[nH]n3)sc2c2cnn(Cc3coc(C(N)=O)n3)c(=O)c21 |
| 301 to 800 nM | 301 to 800 nM | < 300 nM | > 1000 nM | – | Cn1c2nc(Cc3cc[nH]n3)sc2c2cnn(Cc3cc(=O)[nH][nH]3)c(=O)c21 |
| 301 to 800 nM | 301 to 800 nM | 301 to 800 nM | > 1000 nM | – | Cn1c2nc(Cc3cc[nH]n3)sc2c2cnn(Cc3nc[nH]c3N)c(=O)c21 |
| < 300 nM | < 300 nM | < 300 nM | ≤ 1000 nM | – | Cn1c2nc(Cc3cc[nH]n3)sc2c2cnn(Cc3ccnc(N)n3)c(=O)c21 |
| < 300 nM | 301 to 800 nM | < 300 nM | ≤ 1000 nM | – | Cn1c2nc(Cc3cc[nH]n3)sc2c2cnn(Cc3nccc(N)n3)c(=O)c21 |
| < 300 nM | < 300 nM | < 300 nM | ≤ 1000 nM | – | COc1sc(Br)nc1Cc1nc2c(s1)c1cnn(Cc3cc[nH]n3)c(=O)c1n2C |
| < 300 nM | < 300 nM | < 300 nM | ≤ 1000 nM | – | COc1scnc1Cc1nc2c(s1)c1cnn(Cc3cc[nH]n3)c(=O)c1n2C |
| > 800 nM | > 800 nM | > 800 nM | > 1000 nM | – | Cn1cc(C(=O)O)c(Cn2ncc3c4sc(Cc5cc[nH]n5)nc4n(C)c3c2=O)n1 |
